US7629318B2, “Immunosuppressant compounds, methods and uses related thereto” (priority 2002, dated 2009)
Numbered stars: 1 amine (or outer) side, 2 acyl side, 3 side chain; on linkers, the order of the positions; unused ones are H or OH. Square brackets hold non-standard residues; d marks the D form. Peptide text beside a SMILES is read from it. * marks the point of attachment. ξ: configuration not given here. Gly(1-amidinopiperidin-4-yl) = N=C(N)N1CCC([C@H](N)C(=O)O)CC1; X1 = CC(C)c1oc([C@H](CO)N[*:1])nc1C(=O)[*:2]; Pro(3R-Ph) = O=C(O)[C@H]1NCC[C@@H]1c1ccccc1; Tic = O=C(O)[C@@H]1Cc2ccccc2CN1; Cha = N[C@@H](CC1CCCCC1)C(=O)O; NHPhenethyl = c1ccc(CCN*)cc1; NMe(benzyl) = CN(Cc1ccccc1)*; ξDisc = O=C(O)C1NCc2ccccc21; Nle = CCCC[C@H](N)C(=O)O; NHBn = c1ccc(CN*)cc1; X3 = OCCOCCN*

Experiments:
[1] = biological target: Cathepsin L (Homo sapiens, UniProt P07711)
[2] = test system: T cell activation from 0404(DR14) chimeric MHCII-mice; assay: In vivo inhibition of T cell activation by co-immunisation, DR14 mice immunised with OVA; parameters: species or system mouse; % Reduction of response to PPD(OVA): concentration or dose not given beside the values; conditions: for % Reduction of response to OVA: DR14 mice co-immunised with OVA plus compound, mean % inhibition from the control over 3 concentrations of antigen (6.7, 20 and 60 ug); for % Reduction of response to PPD(OVA): specificity control: response to PPD in the same cell pool, OVA co-immunised mice
From the text: Mouse strains DR4 and DR14 carry chimeric MHC-II transgenes that encode the N-terminal domains of the respective DR molecules (forming the peptide binding site) and the remaining (2nd extracellular domains, transmembrane and intracytoplasmic domains) of the murine class II molecule I Ed. These strains are deficient of other murine class II, and thus, all helper T cell responses are triggered by peptides presented in the respective human MHC-II binding site. As an initial in vivo test of subject inhibitors designed to bind to DR, DR-transgenic mice were co-immunized with a pre-defined dose of protein antigen and different amounts of the compound antagonist to be tested. In this set-up, both antigen and compound were emulsified together in complete Freund's adjuvant (CFA), and thus, a direct competition between the two components for presentation by DR was tested. Readout of the assay is ex vivo antigen-specific activation of T cells from regional lymph nodes explanted 9 days after co-immunization. In a typical experiment, antigen dose-response was investigated, and the curves from mice immunized with antigen were compared to those from mice co-immunized with antigen+compound. The dose response curves were generated using lymph node cells pooled at equal numbers from 2-3 mice per experimental group. The experimental system also permits assessment of inherent antigenicity of the compound antagonist. This was done by setting up a dose-response study from the same cell pool using different concentrations of the compund under investigation instead of the antigen. As a specificity control, the response to Purified Protein Derivative (PPD), the major protein component of CFA, was tested in the same cell pool.
All Gpg conataining compounds have significant immunosupressive properties in one or both of the in-vivo models. Gpg-containing compounds also show improved activity or improved specificity over the Arg-containing equivilent. Further, compounds according to Formula I show activity in this assay.
Compounds of the invention were injected as an Emulsion prepared using CFA (Bacto Adjuvant Complete H37 Ra, Difco, Order-No. 3113-60); proteins 10 mg/ml in PBS, inhibitors 5 μM in 10% DMSO. CFA, PBS, antigen, and inhibitor were placed in the barrel of a 5-ml syringe (total volume not more than 1 mL). The mixture was sonicated at an amplitude less than 40% (30-35%) for two separated 15 s periods. The emulsion should seem to be hard and not liquid at this point. A drop of emulsion placed on the surface of water should not melt. The resulting emulsion was pushed through the needle into a 1 ml syringe with a needle (Gr.18, 26G×1″), and air bubbles were removed. Mice were co-immunized with 50 μg protein and 210 nM compound antagonist in final 100 μl emulsion into the tail base. Antigen+Compound and CFA are mixed 1:1 vol/vol. The best results are obtained using DR 4 mice immunised with HEL and DR 14 mice immunized with OVA.
Mice were injected at the tail-base as follows: Holding the tail of a mouse with thumb and middle finger, the index finger was placed under the base of the mouse's tail. The needle of the syringe was inserted about 1.5 cm from the tail base (hairy end) under the skin and pushed about 1 cm into the tail. 100 μl emulsion was injected into the mouse. After 9 days, mice were killed and lymph nodes removed.
The inhibitory effect of the candidate compounds on T-cell activation was tested using T-cells and antigen-presenting cells isolated from the lymph nodes of chimeric DR4-IE transgenic mice (Taconic, USA) previously co-immunized with hen egg lysozyme plus compound, or DR14-IE transgenic mice co-immunized with ovalbumin plus compound according to standard procedures (Adorini et al., 1988, Mueller et al., 1990; Current Protocols in Immunology, Vol. 2, 7.21; Ito et al., 1996). […]

[3] = test system: HLA-DR1 transgenic mice, collagen induced arthritis; assay: Collagen induced arthritis (CIA) mouse model for rheumatoid arthritis; type: in vivo; conditions: compared to solvent as control; s.c.
Method: CIA is induced by immunization with type II collagen in HLA-DR1 transgenic mice as described by Rosloniec et al (J. Exp. Med. 1997; 185: 113). After disease onset, mice are treated with compounds at the maximal tolerated dose s.c. for two weeks, and the disease development compared to that in mice treated with solvent only as follows:
Disease Severity Score • 1. Erythema and mild swelling confined to the tarsals or ankle joint • 2. Erythema and mild swelling extending from the ankle to the tarsals • 3. Erythema and moderate swelling extending from the ankle to the metatarsal joints • 4. Erythema and severe swelling encompass the ankle, foot, and digits

[4] = test system: DR4 transgenic mice, EAE induced by MOG; assay: Experimental autoimmune encephalomyelitis (EAE) mouse model for multiple sclerosis; type: in vivo; conditions: for efficacy in the EAE mouse model for multiple sclerosis prevention: compared to solvent as control, s.c.
Method: EAE is induced in DR4 transgenic mice by injection of myelin oligodendrocyte glycoprotein (MOG) as described by Ito et al. (1996). After disease onset, mice are treated with compounds and studied as below:
Disease Score • 1. Tail atony • 2. Hind limb weakness • 3. Hind limb paralysis • 4. Hind limb paralysis and fore limb weakness or paralysis • 5. Moribund

Chain of Cathepsin L (P07711 114-333): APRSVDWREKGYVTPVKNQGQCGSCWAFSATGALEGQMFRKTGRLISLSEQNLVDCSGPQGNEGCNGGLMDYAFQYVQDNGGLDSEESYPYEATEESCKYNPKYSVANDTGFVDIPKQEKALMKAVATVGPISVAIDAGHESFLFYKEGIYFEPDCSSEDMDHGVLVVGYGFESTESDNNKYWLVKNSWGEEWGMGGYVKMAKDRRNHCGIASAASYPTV

SMILES | % Reduction of response to OVA [2] [%] | % Reduction of response to PPD(OVA) [2] [%] | other results
CSCC[C@H](NC(=O)C1c2ccccc2CN1C(=O)[C@H](CCCNC(=N)N)NC(=O)[C@H](CC1CCCCC1)NC(C)=O)C(N)=O (stereo partly drawn) [Compound P12-1, Ac-Cha-Arg-Disc-Met-NH2] (Ac-[Cha]R[ξDisc]M-NH2) |  |  | Stability (Arbitrary units) Cath L 4 h [1]: 101 Arbitrary units
CCCC[C@H](NC(=O)[C@@H]1Cc2ccccc2CN1C(=O)[C@H](CCCNC(=N)N)NC(=O)[C@H](CC1CCCCC1)NC(C)=O)C(=O)N(C)Cc1ccccc1 [Compound P71, Ac-Cha-Arg-Tic-Nle-N(Me)Bn] (Ac-[Cha]R[Tic][Nle]-{NMe(benzyl)}) | 48.8 | 21.8 | 
CSCC[C@H](NC(=O)[C@@H]1Cc2ccccc2CN1C(=O)[C@@H](NC(=O)[C@H](CC1CCCCC1)NC(C)=O)C1CCN(C(=N)N)CC1)C(=O)N1CC[C@H](c2ccccc2)[C@H]1C(=O)N[C@@H](CO)c1nc(C(=O)N(C)C)c(C(C)C)o1 [Compound P60, Ac-Cha-Gpg-Tic-Met-βPhPro-[S(oxaz)L]-NMe2] (Ac-[Cha][Gly(1-amidinopiperidin-4-yl)][Tic]M[Pro(3R-Ph)][X1]-NMe2) | 50.3 | 28.1 | 
CCCC[C@H](NC(=O)[C@@H]1Cc2ccccc2CN1C(=O)[C@@H](NC(=O)[C@H](CC1CCCCC1)NC(C)=O)C1CCN(C(=N)N)CC1)C(=O)N(C)Cc1ccccc1 [Compound P74, Ac-Cha-Gpg-Tic-Nle-N(Me)Bn] (Ac-[Cha][Gly(1-amidinopiperidin-4-yl)][Tic][Nle]-{NMe(benzyl)}) | 42.5 | 5.8 | efficacy in the CIA mouse model for rheumatoid arthritis [3]: Efficacy; efficacy in the EAE mouse model for multiple sclerosis prevention [4]: Efficacy
CSCC[C@H](NC(=O)[C@@H]1Cc2ccccc2CN1C(=O)[C@H](CCCNC(=N)N)NC(=O)[C@H](CC1CCCCC1)NC(C)=O)C(N)=O [Compound P1, Ac-Cha-Arg-Tic-Met-NH2] (Ac-[Cha]R[Tic]M-NH2) |  |  | Stability (Arbitrary units) Cath L 4 h [1]: 117 Arbitrary units
CCCC[C@H](NC(=O)[C@@H]1Cc2ccccc2CN1C(=O)[C@@H](NC(=O)[C@H](CC1CCCCC1)NC(C)=O)C1CCN(C(=N)N)CC1)C(=O)N1CC[C@H](c2ccccc2)[C@H]1C(=O)N[C@@H](CO)c1nc(C(=O)N(C)C)c(C(C)C)o1 [Compound P53, Ac-Cha-Gpg-Tic-Nle-βPhPro-[S(oxaz)L]-NMe2] (Ac-[Cha][Gly(1-amidinopiperidin-4-yl)][Tic][Nle][Pro(3R-Ph)][X1]-NMe2) | 56.3 | 26.8 | efficacy in the CIA mouse model for rheumatoid arthritis [3]: Efficacy; efficacy in the EAE mouse model for multiple sclerosis prevention [4]: Efficacy
CCCC[C@H](NC(=O)[C@@H]1Cc2ccccc2CN1C(=O)[C@H](CCCNC(=N)N)NC(=O)[C@H](CC1CCCCC1)NC(C)=O)C(=O)N1CC[C@H](c2ccccc2)[C@H]1C(=O)N[C@@H](CO)c1nc(C(=O)N(C)C)c(C(C)C)o1 [Compound P51, Ac-Cha-Arg-Tic-Nle-βPhPro-[S(oxaz)L]-NMe2] (Ac-[Cha]R[Tic][Nle][Pro(3R-Ph)][X1]-NMe2) | 43.1 | 3.5 | 
CSCC[C@H](NC(=O)C1c2ccccc2CN1C(=O)[C@@H](NC(=O)[C@H](CC1CCCCC1)NC(C)=O)C1CCN(C(=N)N)CC1)C(=O)N1CC[C@H](c2ccccc2)[C@H]1C(=O)N[C@@H](CO)c1nc(C(=O)N(C)C)c(C(C)C)o1 (stereo partly drawn) [Compound P41-1, Ac-Cha-Gpg-Disc-Met-βPhPro-[S(oxaz)L]-NMe2] (Ac-[Cha][Gly(1-amidinopiperidin-4-yl)][ξDisc]M[Pro(3R-Ph)][X1]-NMe2) | 50.1 | 21.6 | 
CCCC[C@H](NC(=O)[C@@H]1Cc2ccccc2CN1C(=O)[C@@H](NC(=O)[C@H](CC1CCCCC1)NC(C)=O)C1CCN(C(=N)N)CC1)C(=O)NCc1ccccc1 [Compound P68, Ac-Cha-Gpg-Tic-Nle-N(H)Bn] (Ac-[Cha][Gly(1-amidinopiperidin-4-yl)][Tic][Nle]-NHBn) | 95.3 | 65.9 | 
CCCC[C@H](NC(=O)[C@@H]1Cc2ccccc2CN1C(=O)[C@@H](NC(=O)[C@H](CC1CCCCC1)NC(C)=O)C1CCN(C(=N)N)CC1)C(=O)NCCc1ccccc1 [Compound P69, Ac-Cha-Gpg-Tic-Nle-N(H)CH2CH2Ph] (Ac-[Cha][Gly(1-amidinopiperidin-4-yl)][Tic][Nle]-NHPhenethyl) | 65.3 | 9 | efficacy in the CIA mouse model for rheumatoid arthritis [3]: Efficacy; efficacy in the EAE mouse model in terms of disease treatment, versus Arg compound ([4]; P69 at 125 nM compared to P82 at 250 nM): superior; efficacy in the EAE mouse model for multiple sclerosis prevention [4]: Efficacy; in-vivo immunosuppressive properties following co-immunisation with antigen as measured by T-cell proliferation ([2]; compared to the Arg-containing equivalent, antigen/mouse strain not stated in the legend): Superior in-vivo immunosuppressive properties
CSCC[C@H](NC(=O)[C@@H]1Cc2ccccc2CN1C(=O)[C@H](CCCNC(=N)N)NC(=O)[C@H](CC1CCCCC1)NC(C)=O)C(=O)N1CC[C@H](c2ccccc2)[C@H]1C(N)=O [Compound P31, Ac-Cha-Arg-Tic-Met-βPhPro-NH2] (Ac-[Cha]R[Tic]M[Pro(3R-Ph)]-NH2) |  |  | Stability (Arbitrary units) Cath L 4 h [1]: 103 Arbitrary units
CCCC[C@H](NC(=O)[C@@H]1Cc2ccccc2CN1C(=O)[C@@H](NC(=O)[C@H](CC1CCCCC1)NC(C)=O)C1CCN(C(=N)N)CC1)C(=O)NCCOCCO [Compound P70, Ac-Cha-Gpg-Tic-Nle-N(H)CH2CH2OCH2CH2OH] (Ac-[Cha][Gly(1-amidinopiperidin-4-yl)][Tic][Nle]-X3) | 56.1 | 52.3 | 
